Assay results reported in publication PMC12702354, “Engineered an ultrasmall curcumin oral nanoformulation restores intestinal integrity and gut microbiota dysbiosis” (Materials Today Bio, 2025).

Legend:
[1] = tested on: VAN-induced C57BL/6J mouse model; assay: VAN-induced intestinal epithelial barrier dysfunction and gut inflammation model; conditions: 50 mg/kg oral daily, 10 days after VAN
Procedure: This was succeeded by a daily oral administration of 50 mg/kg UsNFs of CUR for another 10 days, whereas the control group (CON) received standard rodent feed and water (Fig. 5A).

[2] = Dose determination: body weight and liver weight; assay type: in vivo, C57BL/6 mice; conditions: for Final body weight / Liver weight / Rel. liver weight: n = 12
Procedure: We first determined the doses of UsNFs and free-CUR in eight-week-old female C57BL/6 mice before systematically evaluating the retention of UsNFs in the GIT and PK of CUR. […] Consequently, 50 mg/kg was identified as the optimal dosage for subsequent in vivo therapeutic assessment of both UsNFs and free-CUR, achieving a balance between efficacy potential, safety, and physiological tolerance.

[3] = Stability in SIF (pancreatin + bile salts); assay type: physicochemical; conditions: 24 h
Procedure: To examine the breakdown of nGM@CUR-UsNF and cGM@CUR-UsNF in SGF and SIF, Fӧrster resonance energy transfer (FRET) analysis was conducted. Formulations co-loaded with HIQ and NR (FRET pairs) were prepared by mixing galactomannan or cGM with HIQ (1 mg/mL) and NR (0.4 mg/mL), followed by sonication 150 W and 25 kHz in an ice-water bath and then filtered using a 0.1 μm membrane. Ultimately, the HIQ/NR@cGM was produced by exposing it to a 253.7 nm UV light at 36 W for 90 min. The control sample of HIQ/NR@GM was also prepared. The PS, PDI, and ZP of the prepared formulations were assessed through dynamic laser scattering. The LE was also determined. The prepared formulations were mixed with SGF or SIF in tubes. […] Fluorescence intensities were captured using a SYNERGY/HTX (BioTek, Germany) with the excitation at 510 nm and emission at 635 nm. The FRET ratio was determined using the formula FRET ratio = INR/(INR + IHIQ), where IHIQ and INR represented the fluorescence intensities of HIQ and NR at 510 nm and 635 nm, respectively, with an excitation wavelength of 450 nm. […] CUR retention was measured using HPLC following the separation of the released drug, while particle size was assessed through DLS analysis. The stability of the polymer was evaluated using gel permeation chromatography and a reducing sugar assay. […]

[4] = Storage stability of UsNFs in MQW over 180 days at 37 °C; assay type: physicochemical; conditions: 37 ± 1 °C
Procedure: The release kinetics of CUR from the UsNFs was also measured for 24 h in simulated gastric fluid (SGF; pH 2.5) and simulated intestinal fluid (SIF; pH 7.0) at 37 ± 1 °C (Fig. 2F). […] Additionally, the stability of UsNFs, which were dissolved at a concentration of 2 mg/mL in MQW, was also tested over 180 days at a temperature of 37 ± 1 °C (Fig. 2G and H). […] The autoxidation, hydrolysis, and degradation-induced content loss of CUR is a significant issue.

## COc1cc(/C=C/C(=O)CC(=O)/C=C/c2ccc(O)c(OC)c2)ccc1O [free-CUR, curcumin]
[1]
  Colon length: no significant decrease
  MDA levels: only partially diminished
[2]; 25 mg/kg and 50 mg/kg
  Final body weight or relative liver weight compared to normal control: no significant differences
[2]; 25 mg/kg
  Final body weight: 22.02 ± 0.15 g
  Liver weight: 1.06 ± 0.036 g
  Rel. liver weight: 4.81 ± 0.11 Liver wt/100 g b.wt
[2]; 50 mg/kg
  Final body weight: 21.6 ± 0.19 g
  Liver weight: 1.05 ± 0.022 g
  Rel. liver weight: 4.86 ± 0.23 Liver wt/100 g b.wt
[2]; 75 mg/kg
  Final body weight: 16.2 ± 0.21 g
  Liver weight: 1.19 ± 0.038 g
  Rel. liver weight: 7.34 ± 0.16 Liver wt/100 g b.wt
[3]
  CUR retained: less than 10%
[4]
  CUR content remaining after storage: 27%
  CUR degradation during storage: over 73%
